What was measured:
Format in all cases: cell-based, human
VCAM-1 = experiment: TNF-alpha-induced VCAM-1 RNA levels in aortic endothelial cells (Northern blot); settings: aortic endothelial cells, mean ± SD
Description: (§1) Cell culture and treatment of HAEC: Human aortic endothelial cells (HAEC; Cambrex Bio Science Walkersville, Inc., Walkersville, Md.) are cultured in M199 supplemented with 8% FBS, 100 μg/ml heparin, 10 ng/ml endothelial growth factor, 100 μg/ml hypothalamus extract, 2 mM L-glutamine, 1% non-essential amino acids, 100 units/ml penicillin and 100 μg/ml streptomycin. HAEC are subcultured on gelatin pre-coated: 96-well tissue culture plates (Corning Incorporated; Corning, N.Y.) for viability assays and ELISA; 100-mm tissue culture dishes (BD Falcon; Franklin Lakes, N.J.) for Northern blot analyses, Western blot analyses and EMSA; 35-mm tissue culture dishes (Corning) for adhesion assays and on 24-well tissue culture plates for luciferase promoter assays (BD Falcon). All experiments are performed with confluent HAEC monolayers. Unless noted otherwise, HAEC are treated with 25 ng/ml TNF-α, in the absence or presence of C-10 or 0.25% DMSO (carrier control for C-10), for 2-24 hrs. The concentration of DMSO is held constant at 0.25% (unless indicated otherwise) for all of the C-10 conditions.
(§2) HAEC are washed with PBS and total RNA extracted using a commercial kit (RNeasy Mini Kit; Qiagen Inc.; Valencia, Calif.). 12 μg of total RNA per lane is resolved on 1% denaturing agarose gels containing 0.66M formaldehyde. Gels are capillary blotted on Nytran membranes (Schleicher and Schuell Inc.; Keene, N.H.), UV cross-linked, and used for hybridization. The probe for IRF-1 has been previously described (33). The G3PDH cDNA is from Clontech (Palo Alto, Calif.). […]; cDNAs are labeled with α-^32P-dCTP using the Ladderman Labeling Kit (Takara Biochemical Inc.; Berkeley, Calif.) (33). Northern blots are developed using a BAS 1500 Bioimaging Analyzer (Fuji Photo Film Co., Ltd. Medical Systems USA Inc.; Stanford, Calif.). Each experiment is replicated at least twice.

IRF-1 [1] = experiment: TNF-alpha-induced IRF-1 RNA levels (Northern blot); settings: mean ± SD
Description: as §1, §2

IRF-1 [2] = experiment: TNF-alpha-induced IRF-1 protein levels (Western blot); settings: mean ± SD
Description: as §1
Western blot analysis: Whole cell lysates are prepared in lysis buffer (150 mM NaCl, 1% IGEPAL CA-630, 50 mM Tris-HCL pH 8.0). 20 μg of lysates are then resolved on 4-12% Bis-Tris PAGE gels under denaturing conditions using the NuPAGE Bis-Tris System (Invitrogen; Carlsbad, Calif.). Proteins are transferred to nitrocellulose membranes, which are probed with IRF-1 antibody. Subsequent binding of HRP conjugated goat anti-rabbit Ab (sc-2054, Santa Cruz Biotechnology, Inc.) is detected using Lumigen PS-3 detection reagents (Amersham Pharmacia Biotech.; Piscataway, N.J.).

VCAM-1 promoter = experiment: TNF-alpha-induced VCAM-1 promoter activity, dual luciferase reporter assay in HAEC; settings: hVCAM-1(−228 to +12)-luciferase construct, mean ± SD; for inhibition at 5000 µM: Homo sapiens
Description: as §1
Dual Luciferase Assay: Four human VCAM-1 promoter deletion constructs of different length, −1641/+12, −288/+12, −228/+12, −85/+12 bp are amplified by PCR from human genomic DNA. Each upstream primer contained a restriction endonuclease Mlu I site located at the 5′-end of the primer. The downstream primer corresponding to the +12 end contained a restriction endonuclease Xho I site at the 5′-end. The PCR products are digested by Mlu I and Xho I (New England Biolabs Inc., Beverly, Mass.) and ligated into a similarly digested pGL3 basic luciferase reporter vector (Promega, Madison, Wis.). Cells are transfected for 24 hrs. with 400 ng of indicated constructs, or pGL3 basic luciferase reporter vector as control, using GeneJuice transfection reagent (Novagen Inc., Madison, Wis.). All cells are also transfected with phRL-TK (Int−) vector (Promega), which contains wildtype Renilla luciferase (Rluc) as an “internal” transfection control. Luciferase assays are conducted with the Dual-Luciferase Reporter Assay System (Promega) on a Lumat LB 9507 tube luminometer. In every experiment, each condition is run in triplicate wells. Each experiment is replicated at least twice.

| Compound | % INHIBITION of TNF-alpha-induced VCAM-1 RNA levels (VCAM-1; 5.0 mM) | % INHIBITION of TNF-alpha-induced VCAM-1 RNA levels (VCAM-1; 10 :M) | % INHIBITION of TNF-alpha-induced VCAM-1 RNA levels (VCAM-1; 100 :M) | % INIHIBITION of TNF-alpha-induced IRF-1 RNA levels (IRF-1 [1]; 5 mM) | % INIHIBITION of TNF-alpha-induced IRF-1 RNA levels (IRF-1 [1]; 10 :M) | % INIHIBITION of TNF-alpha-induced IRF-1 RNA levels (IRF-1 [1]; 100 :M) | % INHIBITION of TNF-alpha-induced IRF-1 Protein levels (IRF-1 [2]; 5 mM) | % INHIBITION of TNF-alpha-induced IRF-1 Protein levels (IRF-1 [2]; 10 :M) | % INHIBITION of TNF-alpha-induced IRF-1 Protein levels (IRF-1 [2]; 100 :M) | % INHIBITION of TNF-alpha-induced VCAM-1 promoter activity (VCAM-1 promoter; 5.0 mM) | % INHIBITION of TNF-alpha-induced VCAM-1 promoter activity (VCAM-1 promoter; 10 :M) | % INHIBITION of TNF-alpha-induced VCAM-1 promoter activity (VCAM-1 promoter; 100 :M) | inhibition at 5000 µM (VCAM-1 promoter; 5.0 mM) | inhibition at 5000 µM (IRF-1 [2]; Homo sapiens, 5 mM) |
| --- | --- | --- | --- | --- | --- | --- | --- | --- | --- | --- | --- | --- | --- | --- |
| 1-Methyl-2-Thiomethyl-5(4)nitroimidazole | 92 ± 5% | 34 ± 6% | 83 ± 10% | 95 ± 12% | 26 ± 12% | 64 ± 16% | 95 ± 12% | 46 ± 15% | 69 ± 10% | 58 ± 6% | 29 ± 6% | 54 ± 10% | – | – |
| Cc1ccc2[nH]c(S)nc2c1 [2-mercapto-5-methylbenzimididazole, 2-Mercapto-5-methylbenzimidazole] | 11 ± 7% | – | – | – | – | – | – | – | – | – | – | – | – | – |
| Sc1nc2ccccc2[nH]1 [2-mercaptobenzimidazole, 2-Mercaptobenzimidazole] | 26 ± 10% | 0% | 0% | – | – | – | – | – | – | – | 0% | 0% | 30 ± 4% | – |
| Sc1ncc[nH]1 [2-mercaptoimidazole, 2-Mercaptoimidazole] | None | None | None | 0% | 0% | 0% | – | – | – | – | – | – | 0% | – |
| Cc1cnc(S)n1C [5-methylmethimazole, 5-Methylmethimazole] | – | – | – | – | – | – | – | – | – | – | 0% | 0% | 14 ± 8% | – |
| Cn1ccnc1S [Methimazole, 1-Methylimidazole-2-thiol] | 20 ± 10% | 0% | 0% | 27 ± 12% | 0% | 0% | – | 0% | 0% | – | – | – | 0% | 17 ± 6% |
| Cn1ccn(C)c1=S [N-methylmethimazole, N-Methylmethimazole] | 47 ± 12% | 0% | 31 ± 10% | 75 ± 14% | 0% | 34 ± 15% | – | – | – | – | 6 ± 2% | 44 ± 11% | 31 ± 3% | – |

Source: US20050209295A1, “Methimazole derivatives and tautomeric cyclic thiones to inhibit cell adhesion” (priority 2004, published 2005)
